Results on 6 compounds are retold here after PubChem BioAssay AID1259411 (Chemical Carcinogenesis Research Information System (CCRIS), 2018).

This data set relates to rodent carcinogenicity bioassays, tumor incidence. The data set can be described thus: CCRIS carcinogenicity studies. The method, boiled down: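 Archive of carcinogenicity, mutagenicity, tumor promotion and tumor inhibition results drawn from journals, NCI reports and other sources, expert-reviewed; covers 1985-2011 and is no longer updated.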

Activity calls are given as the source filed them. The rule behind the calls is not given here.

For the compound `O[C@H]1C=Cc2c(ccc3cccnc23)[C@@H]1O`, the carcinogen call runs as follows: (Species: MOUSE, Strain/Sex: CD-1/FEMALE, Route: INTRAPERITONEAL, Dose: 0, 5, 10 AND 20 µL OF A 0.05 MOLAR SOLUTION ON DAYS 1, 8 AND 15 OF LIFE RESPECTIVELY (TOTAL DOSE: 1.75 UMOL) (STUDY DURA, Dose: 0, 5, 10 AND 20 µL OF A 0.05 MOLAR SOLUTION ON DAYS 1, 8 AND 15 OF LIFE RESPECTIVELY (TOTAL DOSE: 1.75 UMOL) (STUDY DURA) “inactive; negative”; (Species: MOUSE, Strain/Sex: CD-1/MALE, Route: INTRAPERITONEAL, Dose: 0, 5, 10 AND 20 µL OF A 0.05 MOLAR SOLUTION ON DAYS 1, 8 AND 15 OF LIFE RESPECTIVELY (TOTAL DOSE: 1.75 UMOL) (STUDY DURA, Dose: 0, 5, 10 AND 20 µL OF A 0.05 MOLAR SOLUTION ON DAYS 1, 8 AND 15 OF LIFE RESPECTIVELY (TOTAL DOSE: 1.75 UMOL) (STUDY DURA) “inactive; negative”.
`O=CC(=O)C[C@H](O)[C@H](O)CO`: the carcinogen call (Species: MOUSE, Strain/Sex: CD-1/FEMALE, Route: DERMAL, Dose: 0, 20 UMOL/0.1 ML DMSO 2/WK FOR 5 WK FOLLOWED 1 WK LATER BY 0.1 ML ACETONE 2/WK FOR 47 WK (STUDY DURATION: 52 WK)) is “inactive; negative”.
As for `C[C@@H]1CCC[C@H](C)N1CCC[C@@](O)(c1ccccc1)c1ccccn1`, the carcinogen call runs as follows: (Species: MOUSE, Strain/Sex: B6C3F1/FEMALE, Route: ORAL, Dose: 0, 10, 25, 50 MG/KG/D IN DIET FOR 104 WK (STUDY DURATION: 104 WK), Dose: 0, 10, 25, 50 MG/KG/D IN DIET FOR 104 WK (STUDY DURATION: 104 WK)) “inactive; negative”; (Species: MOUSE, Strain/Sex: B6C3F1/MALE, Route: ORAL, Dose: 0, 10, 25, 50 MG/KG/D IN DIET FOR 104 WK (STUDY DURATION: 104 WK), Dose: 0, 10, 25, 50 MG/KG/D IN DIET FOR 104 WK (STUDY DURATION: 104 WK)) “inactive; negative”; (Species: RAT, Strain/Sex: WISTAR/FEMALE, Route: ORAL, Dose: 0, 10, 25, 50 MG/KG/D IN DIET FOR 104 WK (STUDY DURATION: 104 WK), Dose: 0, 10, 25, 50 MG/KG/D IN DIET FOR 104 WK (STUDY DURATION: 104 WK)) “inactive; negative”; (Species: RAT, Strain/Sex: WISTAR/MALE, Route: ORAL, Dose: 0, 10, 25, 50 MG/KG/D IN DIET FOR 104 WK (STUDY DURATION: 104 WK), Dose: 0, 10, 25, 50 MG/KG/D IN DIET FOR 104 WK (STUDY DURATION: 104 WK)) “inactive; negative”.
In the case of `O=C(O)/C=C/c1ccc(O)c(O)c1`, the carcinogen call was “active; positive” (Species: MOUSE, Strain/Sex: B6C3F1/FEMALE, Route: ORAL, Dose: 0, 2% IN DIET FOR 96 WK (STUDY DURATION: 96 WK), Tumor Site: Type of Lesion: KIDNEY (TUBULAR CELL): ADENOMA); “inactive; negative” (Species: MOUSE, Strain/Sex: B6C3F1/FEMALE, Route: ORAL, Dose: 0, 2% IN POWDERED BASAL DIET FOR 96 WK (STUDY DURATION: 96 WK)); “active; positive” (Species: MOUSE, Strain/Sex: B6C3F1/MALE, Route: ORAL, Dose: 0, 2% IN DIET FOR 96 WK (STUDY DURATION: 96 WK), Tumor Site: Type of Lesion: LUNG (ALVEOLAR CELL): ADENOMA OR ADENOCARCINOMA); “inactive; negative” (Species: MOUSE, Strain/Sex: B6C3F1/MALE, Route: ORAL, Dose: 0, 2% IN POWDERED BASAL DIET FOR 96 WK (STUDY DURATION: 96 WK)); “active; positive” (Species: RAT, Strain/Sex: F344/FEMALE, Route: ORAL, Dose: 0, 2% IN DIET FOR 104 WK (STUDY DURATION: 104 WK), Tumor Site: Type of Lesion: FORESTOMACH: PAPILLOMA, CARCINOMA); “active; positive” (Species: RAT, Strain/Sex: F344/FEMALE, Route: ORAL, Dose: 0, 2% IN DIET FOR 104 WK (STUDY DURATION: 104 WK), Tumor Site: Type of Lesion: FORESTOMACH: SQUAMOUS CELL CARCINOMA). Also, the carcinogen call by setting is: (Species: RAT, Strain/Sex: F344/FEMALE, Route: ORAL, Dose: 0, 2% IN POWDERED BASAL DIET FOR 104 WK (STUDY DURATION: 104 WK), Tumor Site: Type of Lesion: FORESTOMACH: PAPILLOMA, SQUAMOUS CELL CARCINOMA) “active; positive”; (Species: RAT, Strain/Sex: F344/MALE, Route: ORAL, Dose: 0, 0.4% IN DIET FOR DURATION OF STUDY (STUDY DURATION: 104 WK), Tumor Site: Type of Lesion: FORESTOMACH: PAPILLOMA) “active; positive”; (Species: RAT, Strain/Sex: F344/MALE, Route: ORAL, Dose: 0, 2% IN DIET FOR 104 WK (STUDY DURATION: 104 WK), Tumor Site: Type of Lesion: FORESTOMACH: PAPILLOMA, CARCINOMA) “active; positive”; (Species: RAT, Strain/Sex: F344/MALE, Route: ORAL, Dose: 0, 2% IN DIET FOR 104 WK (STUDY DURATION: 104 WK), Tumor Site: Type of Lesion: FORESTOMACH: SQUAMOUS CELL CARCINOMA) “active; positive”; (Species: RAT, Strain/Sex: F344/MALE, Route: ORAL, Dose: 0, 2% IN POWDERED BASAL DIET FOR 104 WK (STUDY DURATION: 104 WK), Tumor Site: Type of Lesion: FORESTOMACH: PAPILLOMA, SQUAMOUS CELL CARCINOMA) “active; positive”; (Species: RAT, Strain/Sex: F344/MALE, Route: ORAL, Dose: 2% IN THE DIET FOR 104 WK (STUDY DURATION: 104 WK), Tumor Site: Type of Lesion: FORESTOMACH: PAPILLOMA, SQUAMOUS CELL CARCINOMA) “active; positive”.
In the case of `CC(=O)CN(N=O)C(N)=O`, the carcinogen call was “active; positive” (Species: RAT, Strain/Sex: F344/FEMALE, Route: GAVAGE, Dose: 0, 8 MG/ML IN CORN OIL/ETHYL ACETATE (2:1) 2/WK FOR 30 WK (STUDY DURATION: LIFETIME), Tumor Site: Type of Lesion: KIDNEY MESENCHYME: TUMOR, THYROID: FOLLICULAR TUMOR) and “active; positive” (Species: RAT, Strain/Sex: F344/MALE, Route: GAVAGE, Dose: 0, 8 MG/ML IN CORN OIL/ETHYL ACETATE (2:1) 2/WK FOR 30 WK (STUDY DURATION: LIFETIME), Tumor Site: Type of Lesion: LUNG: TUMOR, MESOTHELIUM: TUMOR, KIDNEY MESENCHYME: TUMOR, Tumor Site: Type of Lesion: LUNG: TUMOR, MESOTHELIUM: TUMOR, KIDNEY MESENCHYME: TUMOR).
With `COc1ccc(C)cc1N`, the carcinogen call is “active; positive” (Species: MOUSE, Strain/Sex: B6C3F1/FEMALE, Route: ORAL, Dose: 0, 0.22, 0.44% TWA, IN DIET FOR 104 WK (STUDY DURATION: 97-106 WK), Dose: 0, 0.22, 0.44% TWA, IN DIET FOR 104 WK (STUDY DURATION: 97-106 WK), Tumor Site: Type of Lesion: LIVER: HEPATOCELLULAR CARCINOMA, HEPATOCELLULAR CARCINOMA OR ADENOMA, URINARY BLADDER: TRANSITIONAL CELL CARCINOMA OR CA); “active; positive” (Species: MOUSE, Strain/Sex: B6C3F1/MALE, Route: ORAL, Dose: 0, 0.22, 0.46% TWA, IN DIET FOR 92-104 WK (STUDY DURATION: 92-106 WK), Dose: 0, 0.22, 0.46% TWA, IN DIET FOR 92-104 WK (STUDY DURATION: 92-106 WK), Tumor Site: Type of Lesion: URINARY BLADDER: SQUAMOUS CELL CARCINOMA OR TRANSITIONAL CELL CARCINOMA); “active; positive” (Species: RAT, Strain/Sex: F344/FEMALE, Route: ORAL, Dose: 0, 0.5, 1.0% IN DIET FOR 104 WK (STUDY DURATION: 106 WK), Dose: 0, 0.5, 1.0% IN DIET FOR 104 WK (STUDY DURATION: 106 WK), Tumor Site: Type of Lesion: NASAL CAVITY: OLFACTORY NEUROBLASTOMA, URINARY BLADDER: NEOPLASM (NOS) OR PAPILLARY CARCINOMA OR SQUAMOUS CELL CARCINOMA); “active; positive” (Species: RAT, Strain/Sex: F344/MALE, Route: ORAL, Dose: 0, 0.5, 1.0% IN DIET FOR 104 WK (STUDY DURATION: 105-106 WK), Dose: 0, 0.5, 1.0% IN DIET FOR 104 WK (STUDY DURATION: 105-106 WK), Tumor Site: Type of Lesion: NASAL CAVITY: NEUROBLASTOMA OR OLFACTORY NEUROBLASTOMA, LIVER: NEOPLASTIC NODULE OR HEPATOCELLULAR CARCINOMA OR MIXED HE).
